Results as given in ChEMBL document CHEMBL6109137, “Design, Synthesis, Evaluation, and SAR of 5-Phenylisoindoline Derivatives, a Potent Class of Small-Molecule Inhibitors Targeting the Programmed Cell Death-1/Programmed Cell Death-Ligand 1 (PD-1/PD-L1) Interaction” (J Med Chem, 2025).
Activity calls are given as the source filed them. The calls are words filed in the database; no cut-off is given here.

Key:
[1] = biological target: Programmed cell death protein 1/Programmed cell death 1 ligand 1 (Homo sapiens, UniProt Q9NZQ7); experiment: Inhibition of interaction of PD-1/PD-L1 (unknown origin) by HTRF analysis; format: protein-complex assay
Programmed cell death protein 1/Programmed cell death 1 ligand 1, sequence (Q15116 whole entry): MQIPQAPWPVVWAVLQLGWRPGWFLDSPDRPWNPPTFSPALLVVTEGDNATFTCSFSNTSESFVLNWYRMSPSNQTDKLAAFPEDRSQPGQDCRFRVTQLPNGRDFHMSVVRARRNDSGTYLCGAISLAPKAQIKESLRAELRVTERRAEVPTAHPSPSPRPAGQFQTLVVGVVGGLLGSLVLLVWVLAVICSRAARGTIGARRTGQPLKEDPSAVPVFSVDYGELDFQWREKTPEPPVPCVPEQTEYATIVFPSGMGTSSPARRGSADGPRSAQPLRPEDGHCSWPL
Programmed cell death protein 1/Programmed cell death 1 ligand 1, sequence (Q9NZQ7 whole entry): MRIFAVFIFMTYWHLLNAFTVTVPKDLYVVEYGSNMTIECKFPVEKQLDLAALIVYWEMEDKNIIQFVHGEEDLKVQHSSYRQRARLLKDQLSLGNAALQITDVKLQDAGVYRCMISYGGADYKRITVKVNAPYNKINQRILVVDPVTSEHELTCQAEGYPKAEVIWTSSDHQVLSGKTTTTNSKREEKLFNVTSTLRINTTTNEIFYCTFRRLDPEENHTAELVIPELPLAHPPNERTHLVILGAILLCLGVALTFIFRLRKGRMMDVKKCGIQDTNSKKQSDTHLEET

[2] = Cytotoxicity against human L02 cells measured after 48 hrs by MTT assay; format: toxicity, cell-based
[3] = Cytotoxicity against human BEAS-2B cells measured after 48 hrs by MTT assay; format: toxicity, cell-based
[4] = Cytotoxicity against mouse MC38 cells measured after 48 hrs by MTT assay; format: toxicity, cell-based, MC-38
[5] = Drug uptake in mouse MC38 cells incubated for 48 hrs by LC-MS/MS analysis; format: ADME, cell-based; details: mc-38, 48 h, dose 1-10 µM
[6] = Stability in human plasma at 1 mM measured up to 7 hrs by HPLC analysis; format: ADME, cell-free; details: 1000 µM
MC-38 [7] = experiment: Inhibition of PD-L1-induced cell migration in mouse MC38 cells at 5 uM measured up to 24 hrs by scratch assay; format: functional, cell-based
[8] = Half life in Sprague-Dawley rat at 1 mg/kg, iv measured for 24 hrs by LC-MS/MS analysis; format: ADME, organism-based; details: in vivo
[9] = AUC (0 to 24 hrs) in Sprague-Dawley rat at 1 mg/kg, iv measured for 24 hrs by LC-MS/MS analysis; format: ADME, organism-based; details: in vivo
[10] = Clearance in Sprague-Dawley rat at 1 mg/kg, iv measured for 24 hrs by LC-MS/MS analysis; format: ADME, organism-based; details: in vivo
[11] = Tmax in Sprague-Dawley rat at 10 mg/kg, ip measured for 24 hrs by LC-MS/MS analysis; format: ADME, organism-based; details: in vivo
[12] = Cmax in Sprague-Dawley rat at 10 mg/kg, ip measured for 24 hrs by LC-MS/MS analysis; format: ADME, organism-based; details: in vivo
[13] = AUC (0 to infinity) in Sprague-Dawley rat at 10 mg/kg, ip measured for 24 hrs by LC-MS/MS analysis; format: ADME, organism-based; details: in vivo
[14] = Cmax in Sprague-Dawley rat at 20 mg/kg, po measured for 24 hrs by LC-MS/MS analysis; format: ADME, organism-based; details: in vivo
MC-38 [15] = experiment: Antitumor activity against mouse MC38 cells implanted in C57BL/6J mouse at 5 to 20 mg/kg, ip qd; format: functional, organism-based; details: dose 5-20 mg/kg, time 13.0 day
MC-38 [16] = experiment: Antitumor activity against mouse MC38 cells implanted in C57BL/6J mouse at 5 to 20 mg/kg, ip qd for 13 days relative to control; format: functional; details: dose 5-20 mg/kg, time 13 day
[17] = Toxicity in C57BL/6J mouse implanted with mouse MC38 cells assessed as change in heart index at 5 to 20 mg/kg, ip qd for 13 days; format: organism-based; details: in vivo, 312 h, dose 5-20 mg/kg, time 13 day
[18] = Toxicity in C57BL/6J mouse implanted with mouse MC38 cells assessed as change in spleen index at 5 to 20 mg/kg, ip qd for 13 days; format: organism-based; details: in vivo, 312 h, dose 5-20 mg/kg, time 13 day
[19] = Toxicity in C57BL/6J mouse implanted with mouse MC38 cells assessed as injury in heart at 5 to 20 mg/kg, ip qd for 13 days by H and E staining based analysis; format: organism-based; details: in vivo, 312 h, dose 5-20 mg/kg, time 13 day
[20] = Toxicity in C57BL/6J mouse implanted with mouse MC38 cells assessed as injury in liver at 5 to 20 mg/kg, ip qd for 13 days by H and E staining based analysis; format: organism-based; details: in vivo, 312 h, dose 5-20 mg/kg, time 13 day
[21] = Toxicity in C57BL/6J mouse implanted with mouse MC38 cells assessed as injury in spleen at 5 to 20 mg/kg, ip qd for 13 days by H and E staining based analysis; format: organism-based; details: in vivo, 312 h, dose 5-20 mg/kg, time 13 day
[22] = Toxicity in C57BL/6J mouse implanted with mouse MC38 cells assessed as injury in lung at 5 to 20 mg/kg, ip qd for 13 days by H and E staining based analysis; format: organism-based; details: in vivo, 312 h, dose 5-20 mg/kg, time 13 day
[23] = Toxicity in C57BL/6J mouse implanted with mouse MC38 cells assessed as drug tolerance at 5 to 20 mg/kg, ip qd for 13 days; format: organism-based; details: in vivo, 312 h, dose 5-20 mg/kg, time 13 day
MC-38 [24] = experiment: Antitumor activity against mouse MC38 cells implanted in C57BL/6J mouse assessed as increase in ratio of CD8+/CD4+ T cells at 20 mg/kg, ip qd for 13 days by flow cytometry; format: functional, organism-based; details: time 13.0 day
MC-38 [25] = experiment: Antitumor activity against mouse MC38 cells implanted in C57BL/6J mouse assessed as increase in granzyme B level at 5 to 20 mg/kg, ip qd for 13 days by IHC analysis; format: functional, organism-based; details: dose 5-20 mg/kg, time 13.0 day
MC-38 [26] = experiment: Inhibition of cell proliferation of mouse MC38 cells implanted in C57BL/6J mouse assessed as reduction in Ki67 level at 5 to 20 mg/kg, ip qd for 13 days by IHC analysis; format: functional, organism-based; details: dose 5-20 mg/kg, time 13.0 day
Mus musculus [27] = experiment: Restoration of immune function in C57BL/6J mouse implanted with mouse MC38 cells assessed as increase in serum IL-2 level administered intraperitoneally once daily for 13 days by ELISA; format: functional, organism-based; details: dose 5-20 mg/kg, route ip, time 13.0 day
Mus musculus [28] = experiment: Restoration of immune function in C57BL/6J mouse implanted with mouse MC38 cells assessed as increase in serum IL-6 level administered intraperitoneally once daily for 13 days by ELISA; format: functional, organism-based; details: dose 5-20 mg/kg, route ip, time 13.0 day
MC-38 [29] = experiment: Antitumor activity against mouse MC38 cells implanted in C57BL/6J mouse at 160 mg/kg, IG qd for 7 days relative to control; format: functional; details: MC-38, po, 168 h, time 7 day, read-out: TGI
MC-38 [30] = experiment: Antitumor activity against mouse MC38 cells implanted in C57BL/6J mouse assessed as tumor growth inhibition administered intragastrically once daily for 7 days; format: functional, cell-based; details: dose 40-160 mg/kg, route ig, time 7.0 day
[31] = Toxicity in C57BL/6J mouse implanted with mouse MC38 cells assessed as body weight change at 40 to 160 mg/kg, IG qd for 7 days; format: organism-based; details: in vivo, po, 168 h, dose 40-160 mg/kg, time 7 day
[32] = Toxicity in C57BL/6J mouse implanted with mouse MC38 cells assessed as animal mortality at 40 to 160 mg/kg, IG qd for 7 days; format: organism-based; details: in vivo, po, 168 h, dose 40-160 mg/kg, time 7 day
[33] = Toxicity in C57BL/6J mouse implanted with mouse MC38 cells assessed as spleen weight ratio at 40 to 160 mg/kg, IG qd for 7 days; format: organism-based; details: in vivo, po, 168 h, dose 40-160 mg/kg, time 7 day
[34] = Toxicity in C57BL/6J mouse implanted with mouse MC38 cells assessed as kidney weight ratio at 40 to 160 mg/kg, IG qd for 7 days; format: organism-based; details: in vivo, po, 168 h, dose 40-160 mg/kg, time 7 day
[35] = Toxicity in C57BL/6J mouse implanted with mouse MC38 cells assessed as change in AST level at 40 to 160 mg/kg, IG qd for 7 days; format: organism-based; details: in vivo, po, 168 h, dose 40-160 mg/kg, time 7 day
[36] = Toxicity in C57BL/6J mouse implanted with mouse MC38 cells assessed as change in ureas level at 40 to 160 mg/kg, IG qd for 7 days; format: organism-based; details: in vivo, po, 168 h, dose 40-160 mg/kg, time 7 day
[37] = Toxicity in C57BL/6J mouse implanted with mouse MC38 cells assessed as change in MPV count at 40 to 160 mg/kg, IG qd for 7 days; format: organism-based; details: in vivo, po, 168 h, dose 40-160 mg/kg, time 7 day
[38] = Toxicity in C57BL/6J mouse implanted with mouse MC38 cells assessed as change in PDW count at 40 to 160 mg/kg, IG qd for 7 days; format: organism-based; details: in vivo, po, 168 h, dose 40-160 mg/kg, time 7 day

SMILES: C[C@H](N)C(=O)N1Cc2ccc(-c3cccc(-c4ccc5c(c4)OCCO5)c3Cl)cc2C1.Cl
- IC50 [1]: 0.0048 µM
- IC50 at 48 h [2]: > 10 µM
- IC50 at 48 h [3]: > 10 µM
- IC50 at 48 h [4]: 12 µM
- Drug uptake [5]: Dose-dependent-effect
- Stability [6]: Stable
- inhibition (MC-38 [7]): Active
- half-life [8]: 1.61 h
- AUC(0-t) at 24 h [9]: 180 ng·h/mL
- clearance [10]: 87.7 mL/min/kg
- Tmax [11]: 0.42 h
- Cmax [12]: 412 ng/mL
- AUC(0-inf) [13]: 1620 ng·h/mL
- Cmax [14]: 151 ng/mL
- Activity (MC-38 [15]): Time-dependent-effect
- TGI (MC-38 [16]): 52.8%
- Activity [17]: Non-toxic
- Activity [18]: Non-toxic
- Activity [19]: Non-toxic
- Activity [20]: Non-toxic
- Activity [21]: Non-toxic
- Activity [22]: Non-toxic
- Activity [23]: Non-toxic
- Activity (MC-38 [24]): Active
- Activity (MC-38 [25]): Active
- inhibition (MC-38 [26]): Active
- Activity (Mus musculus [27]): Dose-dependent-effect
- Activity (Mus musculus [28]): Dose-dependent-effect
- inhibition in vivo at 160 mg/kg (MC-38 [29]): 64.4%
- inhibition (MC-38 [30]): Dose-dependent-effect
- Activity [31]: Non-toxic
- Activity [32]: Non-toxic
- Activity [33]: Non-toxic
- Activity [34]: Non-toxic
- Activity [35]: Non-toxic
- Activity [36]: Non-toxic
- Activity [37]: Non-toxic
- Activity [38]: Non-toxic
